# In the METLIN SMRT retention time set (Domingo-Almenara et al. 2019):
# Test: gradient 5% acetonitrile 3 min, to 50% in 2 min, to 85% in 15 min, held 3 min, 100 µL/min
# Details: column: Zorbax Extend-C18 2.1 x 50 mm; eluents: water / acetonitrile, 0.1% formic acid
# Method in brief: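 Pure standards were run in mixtures of ~100 molecules by HPLC coupled to a quadrupole time-of-flight mass spectrometer. The column was a Zorbax Extend-C18 (2.1 × 50 mm, 1.8 μm) at 100 μL/min, with water and acetonitrile each containing 0.1% formic acid, in positive and negative ionization mode. Dead and dwell volumes were 40 μL and 900 μL. Retention time was taken from computationally picked adduct peaks, each manually inspected, with data collected over 3 months.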
row,RP-LC retention time [s],Structure (SMILES)
1,805,CCOC(=O)c1ccc(NS(=O)(=O)c2cc(-c3c(CC)noc3NC(C)=O)ccc2OC)cc1
2,1000,Cc1nc2cc(-c3noc(-c4ccc(C#N)cc4F)n3)ccc2o1
3,1080,Cc1ccc2c(c1)N(Cc1cc(F)cc(F)c1)N=C(C(=O)N1CCC(C)CC1)S2(=O)=O
4,955,Cc1ccc(-n2c(N3CCCC(C(=O)NCCC(C)C)C3)nc3ccsc3c2=O)cc1 (stereo not drawn)
5,570,Cc1ccnc(Nc2ccc(NCCNS(=O)(=O)Cc3ccccc3)nn2)c1
6,1140,COc1cc(OC)cc(-c2nc(-c3cn(-c4ccc(C)cc4)nn3)no2)c1
7,786,Cc1noc(C)c1-c1ccc(S(=O)(=O)NC2CC2)cc1
8,717,O=C(O)c1cccc(Nc2c(-c3ccc([N+](=O)[O-])cc3)nc3cnccn23)c1
9,935,CCCn1c(-c2cccc(C(=O)NCCC3=CCCCC3)c2)nc2cccnc21
10,825,Cc1cccc(C)c1NC(=O)Cn1nc2c(Oc3cccc(F)c3)nccn2c1=O
11,857,CCCCOC(=O)c1ccc(NC(=O)c2c(OC)cc(=O)n3c2CCCC3)cc1
12,696,CNC(=O)c1sc2nc(-c3cccc(OC)c3)c(NCCOC)n2c1C
13,1020,COc1cc(OC)cc(-c2nnc(Cc3nc(-c4ccccc4Cl)no3)o2)c1
14,780,O=C(C1=CN(c2ccc3c(c2)OCO3)c2ccccc2S1(=O)=O)N1CCCCC1
15,640,CCOc1ccc(S(=O)(=O)[C@H]2CS(=O)(=O)C[C@@H]2N2CCN(c3ccccn3)CC2)cc1
16,1160,COC(=O)c1cc(C2CC2)nc2c1c(=O)n(Cc1ccc(C)cc1)c(=O)n2C
17,696,COc1ccccc1N1CCN(S(=O)(=O)c2cc3n(c2)CCCNC3=O)CC1
18,891,N#Cc1ccc(C(=O)Nc2cnc(N3CCCCCC3)nc2)cc1
19,706,Cc1cccc(NC(=O)C2CCN(c3nnc4cccc(C)n34)CC2)c1
20,1030,O=C(Nc1nc(-c2ccc(-c3ccccc3)cc2)cs1)c1cccnc1
21,823,Cc1ccc(C(=O)NC2CCN(c3ccccc3)C2=O)cc1F (stereo not drawn)
22,663,O=C(NC1CCCCC1)NC1CCN(C(=O)C2CC2)C1 (stereo not drawn)

row,RP-LC retention time [s],Structure (SMILES)
1,621,Clc1ccccc1-c1nnc(SCc2cccnc2)o1
2,623,COc1ccc2[nH]cc(CCNC(=O)C3CCCN(c4nc5ncccc5n5cccc45)C3)c2c1 (stereo not drawn)
3,868,CCc1ccc2occ(CC(=O)N(Cc3ccc(N(C)C)cc3)C3CCS(=O)(=O)C3)c2c1 (stereo not drawn)
4,732,COC1CCOC2(CCN(C(=O)c3sccc3C)CC2)C1 (stereo not drawn)
5,681,COc1ccc(NC(=O)Cn2cnc3nc(N4CCC(C(=O)NC5CC5)CC4)sc3c2=O)cc1
6,776,O=C(CCSc1nnnn1-c1ccc(Cl)cc1)Nc1nccs1
7,1270,COc1ccc(-c2nc(-c3ccc4c(c3)oc(=O)n4C(C)C)no2)c(C)c1
8,766,O=C(NCc1ccco1)Nc1ccccc1Cl
9,806,Cc1cnn(Cc2nc(-c3ccc(NC(=O)c4ccco4)cc3)oc2C)c1
10,718,O=C(Cn1nc2c3sc(N4CCCC4)nc3ncn2c1=O)Nc1ccc(F)cc1
11,1230,Cc1cccc(C)c1NC(=O)C1CCCN(c2nc3c(s2)c(C)nn3-c2cccc(F)c2)C1 (stereo not drawn)
12,775,COc1ccc(NC(=O)Cn2nc3nc(N4CCCC(C)C4)ccn3c2=O)cc1F (stereo not drawn)
13,904,CCc1ccc(N2C(=O)CN(CCc3ccccc3F)[C@H]3CS(=O)(=O)C[C@H]32)cc1
14,688,O=C(Cn1cccc1-c1nnc(C2CCC2)o1)N1CCN(Cc2ccc3c(c2)OCO3)CC1
15,915,O=C(CN1C(=O)CCCc2cc(S(=O)(=O)N3CCCCCC3)ccc21)N1CCCCCC1
16,628,CN1C(=O)Cc2cc(NC(=O)CN3C(=O)c4ccccc4C3=O)ccc21
17,961,O=C(NC1c2ccccc2-c2ccccc21)c1cccc([N+](=O)[O-])c1
18,704,Fc1ccccc1C(c1nnc(-c2ccccc2)o1)N1CCN(c2ccccn2)CC1 (stereo not drawn)
19,594,CC(C)c1nccn1C1CN(C(=O)C2CCCCC2)C1
20,784,CC(C)NC(=O)c1cc(N2CCCC2)n2nccc2n1
21,865,O[Si](CCCN1CCCCC1)(c1ccc(F)cc1)C1CCCCC1 (stereo not drawn)
22,951,Cn1c(=O)c(N2CCN(C(=O)C3(c4ccccc4)CC3)CC2)nc2ccccc21

row,RP-LC retention time [s],Structure (SMILES)
1,933,COCCCNC(=O)N1CCCCCC1c1ccccc1Cl (stereo not drawn)
2,625,O=C(NC1CCCC1)c1c2c(nc3ccccc13)CCCC2
3,609,CC(=O)N1CCCC(c2nc(CNC(=O)C(C)C)cs2)C1 (stereo not drawn)
4,584,CCc1ccccc1NC(=O)Cn1c(N)nc(C)cc1=O
5,675,CCOc1ccc(NC(=O)Cn2cnc3nc(N4CCCC(C(=O)NC5CC5)C4)sc3c2=O)cc1 (stereo not drawn)
6,727,O=C(NCc1csc(C2CCCN(C(=O)c3ccccc3F)C2)n1)C1CCC1 (stereo not drawn)
7,906,Cc1cc(/C=C2\SC(=S)NC2=O)cc(C)c1O
8,668,CN1C(=O)CCc2cc(NC(=O)C3CCC3)ccc21
9,1080,COc1ccc(OC)c(NC(=O)CN2CC(C)Sc3ccccc32)c1 (stereo not drawn)
10,665,CN(C)C(=O)CN1C(=O)CCSc2ccccc21
11,682,CCN1C(=O)COc2ccc(-c3nc(NC(=O)c4cccc(C)c4)sc3C)cc21
12,691,O=S(=O)(c1ccccc1)c1cnc2c(N3CCNCC3)cccc2c1
13,739,COC(=O)CNC(=O)N1CCCC1c1ccc(C)cc1 (stereo not drawn)
14,609,CCOC(=O)c1ncn(Cc2ccc3c(c2)OCO3)c1N
15,596,Cn1cccc1C(=O)C(=O)N1CCN(Cc2ccc3c(c2)OCO3)CC1
16,758,CC1=C(c2ccc(Cl)cc2)S(=O)(=O)N=C1N1CCCN(C(=O)C2CCCO2)CC1 (stereo not drawn)
17,586,O=C(NCCCN1CCCC1)c1ccc(-c2ccc(NCc3ccccc3)nn2)cc1
18,618,Cn1cnnc1C1CCCCN1C(=O)c1ccc2c(c1)OCO2 (stereo not drawn)
19,736,CCC(C)NC(=O)Cn1c(=O)n(CCCCC(=O)NC2CCCC2)c(=O)c2ccccc21 (stereo not drawn)
20,762,COc1ccc(OC)c(S(=O)(=O)N2C[C@@H](F)C[C@H]2C(=O)N2CCCCC2)c1
21,840,Cc1cccc(N2C(=O)CN(CCc3ccccc3F)[C@H]3CS(=O)(=O)C[C@H]32)c1
22,561,CCOc1ccccc1NC(=O)N1CC(N(CC)C2CCOCC2)C1

row,Structure (SMILES),RP-LC retention time [s]
1,Cc1ncc2c(n1)C[C@@H]1CC[C@H]2N1S(=O)(=O)Cc1ccccc1,706
2,CCCn1cc(C(=O)NC(C)c2cccnc2)c2cccnc21 (stereo not drawn),597
